Test: Safety (adverse events, NCI CTCAE v4.0), expansion phase
Conditions: expansion QD 5 mg

CC(C)n1nc(-c2ccc3oc(N)nc3c2)c2c(N)ncnc21 [Sapanisertib]
27 (69) n (%): Any AE resulting in dose modification/interruption
8 (21) n (%): Pyrexia, all-grade AE of any cause
7 (18) n (%): Abdominal pain, all-grade AE of any cause | Any AE resulting in treatment discontinuation | Asthenia, treatment-related AE | Pruritus, treatment-related AE
18 (46) n (%): Any treatment-related grade ≥3 AE | Hyperglycaemia, all-grade AE of any cause
30 (77) n (%): Any grade ≥3 AE
10 (26) n (%): Constipation, all-grade AE of any cause | Dysgeusia, all-grade AE of any cause | Dysgeusia, treatment-related AE | Pruritus, all-grade AE of any cause
12 (31) n (%): Pruritus generalised, all-grade AE of any cause | Vomiting, treatment-related AE
4 (10) n (%): Fatigue, treatment-related grade ≥3 AE | Headache, all-grade AE of any cause | Hypophosphatemia, grade ≥3 AE of any cause
21 (54) n (%): Nausea, all-grade AE of any cause
9 (23) n (%): Cough, all-grade AE of any cause | Dizziness, all-grade AE of any cause | Oedema peripheral, all-grade AE of any cause
39 (100) n (%): Any AE | Any treatment-related AE
17 (44) n (%): Decreased appetite, treatment-related AE | Diarrhoea, treatment-related AE | Hyperglycaemia, treatment-related AE | Rash maculo-papular, all-grade AE of any cause
13 (33) n (%): Vomiting, all-grade AE of any cause
1 (3) n (%): Anaemia, grade ≥3 AE of any cause | Asthenia, grade ≥3 AE of any cause | Asthenia, treatment-related grade ≥3 AE | Depression, all-grade AE of any cause | Dyspepsia, treatment-related AE | Hypertension, grade ≥3 AE of any cause | Hypokalaemia, grade ≥3 AE of any cause | Hyponatremia, grade ≥3 AE of any cause | Lymphopenia, grade ≥3 AE of any cause | Musculoskeletal chest pain, grade ≥3 AE of any cause | Nausea, grade ≥3 AE of any cause | Nausea, treatment-related grade ≥3 AE | Pruritus generalised, treatment-related grade ≥3 AE | Rash, treatment-related AE | Sepsis, grade ≥3 AE of any cause | Vomiting, grade ≥3 AE of any cause
2 (5) n (%): Acute kidney injury, grade ≥3 AE of any cause | Acute kidney injury, treatment-related AE | Anaemia, treatment-related AE | Arthralgia, all-grade AE of any cause | Dehydration, treatment-related AE | Diarrhoea, grade ≥3 AE of any cause | Diarrhoea, treatment-related grade ≥3 AE | Dyspnoea, grade ≥3 AE of any cause | Haematuria, grade ≥3 AE of any cause | Hyperkalaemia, grade ≥3 AE of any cause | Pneumonia, grade ≥3 AE of any cause | Thrombocytopenia, grade ≥3 AE of any cause | Thrombocytopenia, treatment-related grade ≥3 AE
20 (51) n (%): Decreased appetite, all-grade AE of any cause | Diarrhoea, all-grade AE of any cause | Nausea, treatment-related AE
0 n (%): On-study deaths
6 (15) n (%): Anaemia, all-grade AE of any cause | Dehydration, all-grade AE of any cause | Urinary tract infection, all-grade AE of any cause | Weight decreased, all-grade AE of any cause
14 (36) n (%): Rash maculo-papular, treatment-related AE
11 (28) n (%): Pruritus generalised, treatment-related AE
0 (0) n (%): Constipation, grade ≥3 AE of any cause | Dehydration, grade ≥3 AE of any cause | Dehydration, treatment-related grade ≥3 AE | Headache, treatment-related AE | Hypercholesterolemia, treatment-related AE | Lymphopenia, treatment-related grade ≥3 AE | Pain in extremity, grade ≥3 AE of any cause | Rash, treatment-related grade ≥3 AE | Transitional cell carcinoma, grade ≥3 AE of any cause
3 (8) n (%): Abdominal pain, grade ≥3 AE of any cause | Blood creatinine increased, treatment-related AE | Dry mouth, treatment-related AE | Hypophosphatemia, treatment-related AE | Hypophosphatemia, treatment-related grade ≥3 AE | Oropharyngeal pain, all-grade AE of any cause | Rash maculo-papular, grade ≥3 AE of any cause | Rash maculo-papular, treatment-related grade ≥3 AE | Stomatitis, grade ≥3 AE of any cause | Stomatitis, treatment-related grade ≥3 AE
5 (13) n (%): Any treatment-related SAE | Blood creatinine increased, all-grade AE of any cause | Dry mouth, all-grade AE of any cause | Fatigue, grade ≥3 AE of any cause | Hyperglycaemia, grade ≥3 AE of any cause | Hyperglycaemia, treatment-related grade ≥3 AE | Weight decreased, treatment-related AE
25 (64) n (%): Fatigue, all-grade AE of any cause
19 (49) n (%): Any SAE | Stomatitis (includes oropharyngeal pain and mucosal inflammation), treatment-related AE | Stomatitis, all-grade AE of any cause
22 (56) n (%): Fatigue, treatment-related AE
